# Measurements: ChEMBL document CHEMBL1121424, “Orally active cephalosporins and penicillins” (J Med Chem, 1980)
# Columns and labels:
# [1] = Tested for the peak time in mice following 39 mg/kg oral dose of cephalosporin; format: ADME, organism-based; design: dose 39 mg/kg, route oral; conditions: mouse, in vivo, read-out: Peak time (converted)
# [2] = system: Enterobacter cloacae; test: Tested for inhibition of visible growth of Enterobacter cloacae; format: functional
# [3] = system: Klebsiella aerogenes; test: Tested for inhibition of visible growth of Enterobacter aerogenes; format: functional
# [4] = system: Escherichia coli; test: Tested for inhibition of visible growth of Escherichia coli; format: functional
# [5] = system: Staphylococcus aureus; test: Tested for the antimicrobial activity against Staphylococcus aureus; format: functional
# [6] = system: Streptococcus pneumoniae; test: (§1) Tested for the antimicrobial activity against Streptococcus pneumoniae in mice; format: functional
# [7] = system: Streptococcus pneumoniae; test: as §1; format: functional; remark: listed apart in the source
# [8] = system: Streptococcus pyogenes; test: (§2) Tested for the antimicrobial activity against Streptococcus pyogenes in mice; format: functional
# [9] = system: Streptococcus pyogenes; test: as §2; format: functional; remark: listed apart in the source
# [10] = species: Mus musculus; test: Tested for the antimicrobial activity against Staphylococcus aureus, benzyl-penicillin resistant in mice, perorally; format: functional; conditions: po
# [11] = system: Staphylococcus aureus; test: Tested for the antimicrobial activity against Staphylococcus aureus, benzyl-penicillin sensitive in mice, perorally; format: functional; conditions: po
# [12] = system: Proteus mirabilis; test: Tested for inhibition of visible growth of Proteus mirabilis; format: functional
# [13] = Tested for inhibition of visible growth of Salmonella schottmuelleri; format: functional
# [14] = system: Staphylococcus aureus; test: Tested for inhibition of visible growth of Staphylococcus aureus, benzyl-penicillin sensitive; format: functional
# [15] = system: Streptococcus pyogenes; test: Tested for inhibition of visible growth of Streptococcus pyogenes; format: functional
# [16] = system: Enterococcus faecalis; test: Tested for inhibition of visible growth of Streptococcus faecalis; format: functional
# [17] = system: Streptococcus pneumoniae; test: Tested for inhibition of visible growth of Streptococcus pneumoniae; format: functional
# [18] = system: Klebsiella pneumoniae; test: Tested for inhibition of visible growth of Klebsiella pneumoniae; format: functional
# [19] = system: Staphylococcus aureus; test: Tested for inhibition of visible growth of Staphylococcus aureus; format: functional
# [20] = Tested for the peak time in mice following 12.5 mg/kg oral dose of cephalosporin; format: ADME, organism-based; design: dose 12.5 mg/kg, route oral; conditions: mouse, in vivo, read-out: Peak time (converted)
# [21] = system: Escherichia coli; test: Tested for the antimicrobial activity against Escherichia coli in mice perorally; format: functional; conditions: po
# [22] = system: Escherichia coli; test: Tested for the antimicrobial activity against Escherichia coli in mice; format: functional
# [23] = (§3) Tested for the antimicrobial activity against Salmonella schottmuelleri in mice; format: functional
# [24] = as §3; format: functional; remark: listed apart in the source
# [25] = Tested for the peak time in mice following 40 mg/kg oral dose of cephalosporin; format: ADME, organism-based; design: dose 40 mg/kg, route oral; conditions: mouse, in vivo, read-out: Peak time (converted)
# [26] = tested for the peak time in mice following 6.9 mg/kg, oral (administered as the hydrochloride salt dissolved in H2O); format: ADME, organism-based; design: dose 6.9 mg/kg, route oral; conditions: mouse, in vivo, read-out: Peak time (converted)
# [27] = Tested for the peak time in mice following 11.8 mg/kg, oral (administered as the sodium salt dissolved in H2O); format: ADME, organism-based; design: dose 11.8 mg/kg, route oral; conditions: mouse, in vivo, read-out: Peak time (converted)
Compound,MIC [2],MIC [3],MIC [4],ED50 [5],ED50 [6],ED50 [7],ED50 [8],ED50 [9],ED50 [11],MIC [12],MIC [13],MIC [14],MIC [15],MIC [16],MIC [17],MIC [18],MIC [19],ED50 [21],ED50 [22],ED50 [23],other results
CC1=C(C(=O)O)N2C(=O)C(NC(=O)[C@H](N)c3ccc4c(c3)CCO4)C2SC1 (some centres not stated),> 100 µg/mL,> 100 µg/mL,50 µg/mL,0.63 mg/kg,8.6 mg/kg,10 mg/kg,0.37 mg/kg,0.34 mg/kg,0.67 mg/kg,> 100 µg/mL,12.5 µg/mL,0.4 µg/mL,0.2 µg/mL,> 100 µg/mL,0.4 µg/mL,25 µg/mL,1.6 µg/mL,–,–,–,Tmax [1]: 10 min; ED50 [10]: 7 mg/kg
N[C@@H](C(=O)NC1C(=O)N2C(C(=O)O)=C(CSc3c[nH]nn3)CSC12)c1ccc2c(c1)OCO2 (some centres not stated),50 µg/mL,50 µg/mL,12.5 µg/mL,0.13 mg/kg,5 mg/kg,4.1 mg/kg,0.41 mg/kg,0.32 mg/kg,0.7 mg/kg,50 µg/mL,1.6 µg/mL,0.4 µg/mL,0.2 µg/mL,50 µg/mL,0.2 µg/mL,3.1 µg/mL,0.8 µg/mL,24.8 mg/kg,9.1 mg/kg,12.5 mg/kg,Tmax [20]: 20 min; ED50 [24]: 8.1 mg/kg
CC1=C(C(=O)O)N2C(=O)C(NC(=O)[C@H](N)c3ccc4c(c3)OCO4)C2SC1 (some centres not stated),> 100 µg/mL,> 100 µg/mL,25 µg/mL,0.45 mg/kg,19 mg/kg,26 mg/kg,1 mg/kg,1.4 mg/kg,0.61 mg/kg,> 100 µg/mL,12.5 µg/mL,0.4 µg/mL,0.8 µg/mL,> 100 µg/mL,1.6 µg/mL,25 µg/mL,3.1 µg/mL,28 mg/kg,15 mg/kg,37 mg/kg,Tmax [25]: 10 min; ED50 [24]: 33 mg/kg; ED50 [10]: 3.1 mg/kg
Cc1nnc(SCC2=C(C(=O)O)N3C(=O)C(NC(=O)[C@H](N)c4ccc5c(c4)OCO5)C3SC2)s1 (some centres not stated),25 µg/mL,25 µg/mL,12.5 µg/mL,0.29 mg/kg,1.3 mg/kg,0.79 mg/kg,0.84 mg/kg,0.23 mg/kg,0.8 mg/kg,> 100 µg/mL,1.6 µg/mL,0.2 µg/mL,0.1 µg/mL,50 µg/mL,0.1 µg/mL,6.2 µg/mL,3.1 µg/mL,33.9 mg/kg,10.6 mg/kg,40 mg/kg,Tmax [26]: 30 min; Tmax [27]: 30 min; ED50 [24]: 8 mg/kg
